Where a name gives a salt, the structure may show the parent alone.
What was measured:
[1] = Example 3: photographic speed and fog, 365 nm exposure, emulsion T-2; parameters: Fog: unit not given here; details: for effect on dye desensitization: red dyed emulsion (D-II), 365 nm
Protocol: For photographic evaluation, each of the coating strips was exposed for 0.1 sec to a 365 nm emission line of a Hg lamp filtered through a Kodak Wratten filter number 18A and a step wedge ranging in density from 0 to 4 density units in 0.2 density steps. The exposed film strips were developed for 6 min in Kodak Rapid X-ray Developer (KRX). S365, relative sensitivity at 365 nm, was evaluated at a density of 0.2 units above fog.
(§1) This emulsion was precipitated using deionized gelatin. […] The chemically sensitized emulsion was then used to prepare coatings containing the fragmentable two-electron donor compounds. All of the experimental coating variations in Table III contained the hydroxybenzene 2,4-disulfocatechol (HB3) at a concentration of 13 mmole/ mole Ag, added to the melt before the addition of any further addenda. Where present, the blue sensitizing dye D-I or the red sensitizing dye D-II were added from methanol solution to the emulsion at 40° C. after the chemical sensitization and disulfocatechol addition.

[2] = Example 3: spectral sensitivity, wedge spectrographic exposure, emulsion T-2; details: dyed control=100
Protocol: as §1
Additional testing was carried out to determine the response of the coatings described in Table III to a spectral exposure. Each of the coating strips was exposed for 0.1 sec on a wedge spectrographic instrument that covers the wavelength range from 400 to 750 nm. The instrument contains a tungsten light source and a step tablet ranging in density from 0 to 3 density units in 0.3 density steps. After developing exposed strips for 6 min in Kodak Rapid X-ray Developer (KRX), speed was read at 10 nm wavelength intervals at a density of 0.3 above fog. Correction for the instrument's variation in spectral irradiance with wavelength was done with a computer and a plot of log sensitivity vs. wavelength was generated. For this exposure, for each dye used, the relative sensitivity was set equal to 100 for the control coating with no fragmentable two-electron donor compound added.

[3] = Example 10: photographic sensitivity and fog, color format, blue sensitized emulsion T-2; details: for Photographic Sensitivity SWR2B: control=100
Protocol: The hydroxybenzene, 2,4-disulfocatechcol (HB3) at a concentration of 13×10^-3 mole/mole Ag was added to the emulsion melt before the start of the chemical sensitization procedure. […] The fragmentable two-electron donors S-3, S-9, S-6, or S-8 were then added to the emulsion melt.
The melts were prepared for coating by adding additional water, deionized gelatin and coating surfactants. Coatings were prepared by combining the emulsion melts with a melt containing deionized gelatin and an aqueous dispersion of the cyan-forming color coupler CC-1 and coating the resulting mixture on acetate support. […] The structure of the color coupler CC-1 is given below: [drawing 120]
(§2) For photographic evaluation, each of the coating strips was exposed for 0.01 sec to a 3000K color temperature tungsten lamp filtered to give an effective color temperature of 5500K and further filtered through a Kodak Wratten filter number 2B, and a step wedge ranging in density from 0 to 4 density units in 0.20 density steps. This exposure gives light absorbed mainly by the blue sensitizing dye. The exposed film strips were developed for 31/4 minutes in Kodak C-41 color developer. SWR2B, relative sensitivity for this filtered exposure, was evaluated at a cyan density of 0.15 units above fog.

[4] = Example 11: photographic sensitivity and fog, color format, blue sensitized emulsion T-2; details: for Photographic Sensitivity SWR2B: control=100
Protocol: The AgBrI tabular silver halide emulsion T-2 from Example 3 was optimally chemically and spectrally sensitized by adding NaSCN, 1.07 mmole of the blue sensitizing dye D-I per mole of silver, Na3 Au(S2 O3)2 ·2H2 O, Na2 S2 O3 ·5H2 O, and a benzothiazolium finish modifier and then subjecting the emulsion to a heat cycle to 65° C. The hydroxybenzene, 2,4-disulfocatechcol (HB3) at a concentration of 13×10^-3 mole/mole Ag was added to the emulsion melt before the start of the chemical sensitization procedure. This chemically sensitized emulsion was then used to prepare the experimental coating variations given in Table X. For all the variations in Table X, the antifoggant and stabilizer tetraazaindene (TAI) was added to the emulsion melt in an amount of 1.75 g/mole Ag before any further addenda. The fragmentable two-electron donors S-3, S-9, S-6, or S-8 were then added to the emulsion melt.
The melts were prepared for coating by adding additional water, deionized gelatin and coating surfactants. Coatings were prepared by combining the emulsion melts with a melt containing deionized gelatin and an aqueous dispersion of the cyan-forming color coupler CC-1 and coating the resulting mixture on acetate support. The final coatings contained Ag at 0.81 g/m^2, coupler at 1.61 g/m^2, and gelatin at 3.23 g/m^2. The coatings were overcoated with a protective layer containing gelatin at 1.08 g/m^2, coating surfactants, and a bisvinylsulfonylmethyl ether as a gelatin hardening agent. The structure of the color coupler CC-1 is given below: [drawing 120]
as §2
The AgBrI tabular emulsion T-2 as described in Example 3 was sensitized as described in Example 10 except that the hydroxybenzene HB3 was added at the completion of the chemical sensitization procedure. For all the variations in Table XI, the antifoggant and stabilizer tetraazaindene (TAI) was added to the emulsion melt in an amount of 1.75 g/mole Ag before any further addenda. The fragmentable two-electron donors S-12, S-14, S-13, or S-11 were then added to the emulsion melt. The melts were then coated and tested as described in Example 10.

[5] = 0.0022 x10^-3 mole/mole Ag, dye II 0.86 x10^-3
[6] = 0.0022 x10^-3 mole/mole Ag, dye II 0.86 x10^-3, dyed control 68
[7] = 0.007 x10^-3 mole/mole Ag, dye II 0.86 x10^-3
[8] = 0.022 x10^-3 mole/mole Ag, dye I 0.91 x10^-3
[9] = 0.022 x10^-3 mole/mole Ag, dye I 0.91 x10^-3, dyed control 105
[10] = 0.007 x10^-3 mole/mole Ag, dye II 0.86 x10^-3, dyed control 68
[11] = 0.07 x10^-3 mole/mole Ag, dye I 0.91 x10^-3
[12] = 0.07 x10^-3 mole/mole Ag, dye I 0.91 x10^-3, dyed control 105
[13] = 0.07 x10^-3 mole/mole Ag, no dye
[14] = 0.07 x10^-3 mole/mole Ag, no dye, control=100

SMILES | Fog [1, 5] | S365 [1, 6] | Fog [1, 7] | Fog [1, 8] | S365 [1, 9] | effect on dye desensitization [1] | Sλ [2, 5] | Sλ [2, 8] | Fog ([3]; 0.022 x10^-3 mol/mol Ag) | Photographic Sensitivity SWR2B ([3]; 0.022 x10^-3 mol/mol Ag) | Fog ([3]; 0.07 x10^-3 mol/mol Ag) | Photographic Sensitivity SWR2B ([3]; 0.07 x10^-3 mol/mol Ag) | Fog ([4]; 0.22 x10^-3 mol/molAg) | Photographic Sensitivity SWR2B ([4]; 0.22 x10^-3 mol/molAg) | Fog ([4]; 0.44 x10^-3 mol/molAg) | Photographic Sensitivity SWR2B ([4]; 0.44 x10^-3 mol/molAg) | other results
CCSCCN(c1ccc(C)cc1)[C@@H](C)C(=O)[O-].[Na+] [Compound S-3, N-(4-Methylphenyl)-N-(2-ethylthio-ethyl)alanine sodium salt] | 0.28 | 120 | 0.75 | 0.16 | 132 | effective in ameliorating dye desensitization | 166 | 120 | 0.14 | 97 | 0.19 | 110 | – | – | – | – | Fog ([1]; 0.022 x10^-3 mole/mole Ag, no dye): 0.13; S365 ([1]; 0.022 x10^-3 mole/mole Ag, no dye, control=100): 151
CCSCCN(c1ccc(C)cc1)C(CC(=O)O)C(=O)O (centres unmarked) [Compound S-8] | 0.11 | 97 | 0.15 | 0.07 | 118 | effective in ameliorating dye desensitization | 141 | 112 | 0.14 | 107 | 0.23 | 110 | – | – | – | – | S365 [1, 10]: 112; Fog [1, 11]: 0.12; S365 [1, 12]: 120; Fog [1, 13]: 0.13; S365 [1, 14]: 162; Sλ [2, 7]: 166; Sλ [2, 11]: 112
CCSCCN(c1ccccc1)C(C)C(=O)O (centres unmarked) [Compound S-9, N-(Phenyl)-N-(2-thioethyl-ethyl)alanine sodium salt] | 0.24 | 115 | 0.44 | 0.08 | 159 | effective in ameliorating dye desensitization | 162 | 126 | 0.16 | 162 | 0.19 | 182 | – | – | – | – | S365 [1, 10]: 107; Fog [1, 11]: 0.13; S365 [1, 12]: 162; Fog [1, 13]: 0.13; S365 [1, 14]: 166; Sλ [2, 7]: 141; Sλ [2, 11]: 138
CCSCCN(c1ccc(C(=O)O)cc1)C(C)C(=O)O (centres unmarked) [Compound S-11] | – | – | – | – | – | – | – | – | – | – | – | – | 0.10 | 166 | 0.09 | 178 | –
CCSCCN(c1ccc(Cl)cc1)C(C)C(=O)O (centres unmarked) [Compound S-12, N-(4-Chlorophenyl)-N-(2-thioethyl-ethyl)alanine sodium salt] | – | – | – | – | – | – | – | – | – | – | – | – | 0.11 | 191 | 0.16 | 204 | –
CCSCCN(c1cccc(C(N)=O)c1)C(C)C(=O)O (centres unmarked) [Compound S-13] | – | – | – | – | – | – | – | – | – | – | – | – | 0.10 | 204 | 0.16 | 209 | –
CCSCCN(c1ccccc1)C(CC(=O)O)C(=O)O (centres unmarked) [Compound S-14] | – | – | – | – | – | – | – | – | – | – | – | – | 0.09 | 170 | 0.09 | 178 | –
